Experiment [1] has as its system human breast cancer cell line SK-BR-3. The experiment is described as follows: Cell growth inhibition assay (MTT), SK-BR-3. It counts as cell-based. The note with it: SK-BR-3 cells, 72 hours, read-out: GI50 value (50% growth inhibitory concentration). How it is done:
(§1) A cell growth inhibition assay was performed using two types of cells (human breast cancer cell line SK-BR-3 and human lung cancer cell line NCI-H460).
(§2) Cells of each type were suspended in a medium and seeded into a 96-well multi-well plate at 2000 cells/150 μL/well in the case of SK-BR-3 and at 500 cells/150 μL/well in the case of NCI-H460. Compound (I) was dissolved in DMSO, and this was diluted with medium to prepare a sample solution (DMSO concentration: 0.5% or less). On the day following the seeding, 50 μL of DMSO-containing medium to which the test compound was not added (hereinafter called DMSO diluted solution; DMSO concentration: 0.5% or less) or 50 μL of the sample solution was further added to the cells. An MTT assay was performed immediately after and 72 hours after adding the sample solution or the DMSO diluted solution to the cells. The MTT assay was performed as follows.
(§3) 5 mg/mL of an MTT (3-(4,5-dimethylthiazol-2-yl)-2,5-diphenyltetrazolium bromide) solution was added at 20 μL per well. Thereafter, the plate was incubated at 37° C. in 5% CO2 for four hours. The plate was centrifuged at 1200 rpm for five minutes, and then the culture supernatant was removed by suction using a dispenser. DMSO was added at 150 μL per well, and the generated formazan was dissolved. […] The absorbance of each well was measured using a plate reader at an OD of 540 nm with a reference of 660 nm. […]

Experiment [2] concerns human lung cancer cell line NCI-H460. Briefly: Cell growth inhibition assay (MTT), NCI-H460. The note with it: NCI-H460 cells, 72 hours, read-out: GI50 value (50% growth inhibitory concentration). The class given is cell-based. How it is done:
as §1, §2, §3

`CNC(=O)CC1=Cc2nn(Cc3ncc(C)c(OC)c3Cl)c3nc(N)nc(c23)SC1` [Compound (1), 2-{4-amino-2-[(3-chloro-4-methoxy-5-methylpyridin-2-yl)methyl]-2,7-dihydro-6-thia-1,2,3,5-tetraazabenzo[cd]azulen-8-yl}-N-methylacetamide]: the GI50 was found to be 13 nM in experiment [1] and 26 nM in experiment [2].

(Values after US8846703B2, “Crystal of a free tricyclic pyrazolopyrimidine derivative” (Daiichi Sankyo Company, Limited, priority 2010, dated 2014).)
